The compounds below were run against Breast cancer type 1 susceptibility protein (Homo sapiens) + BRCA1-associated RING domain protein 1 (Homo sapiens) (UniProt P38398+Q99728) (assay: inhibition of Brca1/Bard1 split-luciferase complementation, dose response, counter-screen for Mdm2/MdmX interaction inhibitor project, cell-based, luminescence (AID 504669)). Settings: SaOS-2 Brca1/Bard1 split-luciferase complementation.
Sequence of Breast cancer type 1 susceptibility protein (Homo sapiens) + BRCA1-associated RING domain protein 1 (Homo sapiens) (P38398 whole entry, looked up, the tested form may be a part): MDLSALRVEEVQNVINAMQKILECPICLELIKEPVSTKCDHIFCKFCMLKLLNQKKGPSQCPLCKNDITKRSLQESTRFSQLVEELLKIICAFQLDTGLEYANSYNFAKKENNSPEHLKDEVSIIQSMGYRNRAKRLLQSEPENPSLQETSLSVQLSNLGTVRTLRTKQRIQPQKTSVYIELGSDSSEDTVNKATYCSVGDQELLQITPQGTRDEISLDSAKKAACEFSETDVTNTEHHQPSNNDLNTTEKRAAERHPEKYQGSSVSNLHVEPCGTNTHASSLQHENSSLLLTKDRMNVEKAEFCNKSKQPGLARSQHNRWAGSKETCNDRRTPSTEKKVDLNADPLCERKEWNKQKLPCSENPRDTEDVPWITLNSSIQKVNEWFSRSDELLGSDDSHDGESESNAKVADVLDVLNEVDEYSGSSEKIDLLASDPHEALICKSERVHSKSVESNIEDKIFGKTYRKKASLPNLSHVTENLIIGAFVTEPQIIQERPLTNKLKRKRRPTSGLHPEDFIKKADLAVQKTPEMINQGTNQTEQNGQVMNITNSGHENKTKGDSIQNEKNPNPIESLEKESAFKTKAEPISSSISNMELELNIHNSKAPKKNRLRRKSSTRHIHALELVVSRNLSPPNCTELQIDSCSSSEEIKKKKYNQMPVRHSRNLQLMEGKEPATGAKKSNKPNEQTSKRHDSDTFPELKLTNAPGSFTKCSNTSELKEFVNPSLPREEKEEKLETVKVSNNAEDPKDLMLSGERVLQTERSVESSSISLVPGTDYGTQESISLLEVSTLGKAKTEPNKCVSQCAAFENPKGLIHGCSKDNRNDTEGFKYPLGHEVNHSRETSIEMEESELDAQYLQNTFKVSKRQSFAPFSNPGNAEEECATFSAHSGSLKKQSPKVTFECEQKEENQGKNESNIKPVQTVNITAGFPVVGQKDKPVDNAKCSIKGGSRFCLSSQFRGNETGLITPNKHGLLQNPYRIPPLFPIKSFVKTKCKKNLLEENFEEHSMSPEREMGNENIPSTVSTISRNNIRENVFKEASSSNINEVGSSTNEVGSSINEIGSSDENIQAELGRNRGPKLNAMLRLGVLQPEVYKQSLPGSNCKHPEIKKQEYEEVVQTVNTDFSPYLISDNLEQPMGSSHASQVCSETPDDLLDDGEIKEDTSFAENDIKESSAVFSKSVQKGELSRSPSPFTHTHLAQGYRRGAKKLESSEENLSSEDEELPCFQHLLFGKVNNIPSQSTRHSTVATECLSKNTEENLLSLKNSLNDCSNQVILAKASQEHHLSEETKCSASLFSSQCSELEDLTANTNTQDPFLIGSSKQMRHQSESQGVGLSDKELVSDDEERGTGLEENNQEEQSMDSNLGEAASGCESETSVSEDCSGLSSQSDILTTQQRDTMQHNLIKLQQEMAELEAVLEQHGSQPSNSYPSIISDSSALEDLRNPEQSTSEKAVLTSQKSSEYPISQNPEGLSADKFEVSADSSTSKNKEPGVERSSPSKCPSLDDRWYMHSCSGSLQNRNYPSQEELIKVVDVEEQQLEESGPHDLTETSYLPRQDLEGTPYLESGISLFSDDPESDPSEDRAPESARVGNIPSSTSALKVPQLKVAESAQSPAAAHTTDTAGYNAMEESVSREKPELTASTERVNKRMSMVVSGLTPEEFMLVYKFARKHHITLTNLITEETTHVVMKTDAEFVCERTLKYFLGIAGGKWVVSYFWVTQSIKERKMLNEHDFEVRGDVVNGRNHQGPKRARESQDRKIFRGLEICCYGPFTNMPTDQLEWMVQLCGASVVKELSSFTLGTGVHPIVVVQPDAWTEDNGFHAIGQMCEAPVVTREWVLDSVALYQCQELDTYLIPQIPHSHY
Sequence of Breast cancer type 1 susceptibility protein (Homo sapiens) + BRCA1-associated RING domain protein 1 (Homo sapiens) (Q99728 whole entry, looked up, the tested form may be a part): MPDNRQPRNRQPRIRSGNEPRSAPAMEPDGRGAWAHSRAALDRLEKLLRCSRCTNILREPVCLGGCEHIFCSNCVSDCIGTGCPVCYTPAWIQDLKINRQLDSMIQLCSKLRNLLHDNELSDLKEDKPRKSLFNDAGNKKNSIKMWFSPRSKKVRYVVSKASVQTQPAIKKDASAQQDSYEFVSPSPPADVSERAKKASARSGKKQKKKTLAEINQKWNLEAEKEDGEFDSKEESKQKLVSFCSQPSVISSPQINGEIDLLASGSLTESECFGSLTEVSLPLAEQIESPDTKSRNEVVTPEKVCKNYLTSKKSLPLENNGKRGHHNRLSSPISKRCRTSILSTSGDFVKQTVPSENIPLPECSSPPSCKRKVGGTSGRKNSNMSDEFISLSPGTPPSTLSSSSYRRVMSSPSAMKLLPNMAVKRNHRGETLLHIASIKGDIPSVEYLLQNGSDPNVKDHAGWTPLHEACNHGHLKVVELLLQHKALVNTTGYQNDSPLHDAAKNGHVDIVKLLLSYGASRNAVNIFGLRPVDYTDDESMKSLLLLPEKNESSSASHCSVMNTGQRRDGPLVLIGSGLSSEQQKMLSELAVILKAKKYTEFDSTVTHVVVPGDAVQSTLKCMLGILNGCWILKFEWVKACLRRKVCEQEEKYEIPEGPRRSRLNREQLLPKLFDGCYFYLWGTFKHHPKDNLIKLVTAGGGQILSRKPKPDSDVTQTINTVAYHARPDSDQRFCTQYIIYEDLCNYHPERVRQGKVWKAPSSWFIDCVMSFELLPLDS

Row | Structure (SMILES) | IC50 [µM]
1 | O=c1oc2ccccc2cc1-c1cn(-c2ccccc2)c(=S)[nH]1 | 0.00353
2 | COc1ccc(-c2cc3c(=O)n(CC(=O)NCCCN4CCC(N5CCCCC5)CC4)nc(C)n3n2)cc1 | 10.6
3 | Cc1nc(NC2=NCN(CCCN3CCOCC3)CN2)nc2c(C)cccc12 | 5.59
4 | CC(C)c1cccc(O)c(=O)c1 | 3.89
5 | Cc1cccn2c(=O)c3cc(C(=O)NCCc4ccccc4)c(=N)n(Cc4ccco4)c3nc12 | 4.13
6 | Cn1nc([N+](=O)[O-])nc1Sc1nnc(-c2ccccc2)o1 | 12.3
7 | COCCn1c(C)cc(C2=NNC(=Nc3ccccc3F)SC2)c1C | 0.493
8 | COc1cc(-c2nc(-c3ccc(NC(=O)c4ccc5c(c4)OCO5)cc3)no2)cc(OC)c1OC | 13.4
9 | CCOc1cc(N2CCOCC2)c(OCC)cc1NC(=O)COc1cccc2cccnc12 | 5.07

Second part, the compound after the results:

Row | IC50 [µM] | Structure (SMILES)
10 | 1.97 | O=C(CN1CCCc2ccccc21)N/N=C/c1c(O)ccc2ccccc12
11 | 10.1 | CCN(CC)S(=O)(=O)c1ccc(NC(=O)c2cccnc2Cl)c(NC(=O)c2cccnc2Cl)c1
12 | 5.35 | C/C(=N\Nc1cc(C)nc(-c2ccccc2O)n1)c1ccccc1O
13 | 4.85 | CC(=O)c1ccc(-c2ccc(C(=O)Nc3nc(-c4ccccn4)cs3)o2)cc1
14 | 9.78 | CCN1C/C(=C/c2ccc(OC)c(O)c2)C(=O)/C(=C/c2ccc(OC)c(O)c2)C1
15 | 3.9 | CCOC(=O)/C=C/C(=O)OCC(=O)NC(c1ccccc1)c1ccccc1
16 | 6.64 | O=C(/C=C/c1c(F)cccc1Cl)c1ccc(O)cc1
17 | 8.39 | CC1(C)C(=O)Nc2ccccc2N1C(=O)Cn1ncc(Cl)c(Cl)c1=O
18 | 4.37 | O=[N+]([O-])c1ccccc1S(=O)(=O)Nc1cccc2cccnc12
19 | 14.3 | CCOC(=O)c1ccc(Nc2nc(N)c3cc(OC)c(OC)cc3n2)cc1
20 | 1.18 | COc1ccc2c(c1)C1(Nc3ccccc3-c3nc4ccccc4n31)C(=O)N2C (stereo not given)
